# Experimental data as given in patent US20250144179A1, “PEPTIDE HORMONE TO PREVENT OR TREAT VASOSPASM, BRAIN INJURY OR CEREBRAL EDEMA” (UNIVERSITY OF FLORIDA RESEARCH FOUNDATION, INCORPORATED, priority 2022, published 2025).
# Key:
# Type in all cases: in vivo, mouse
# [1] = tested on: murine intracranial aneurysm rupture model; assay: Intracranial aneurysm rupture model; conditions: 450 nmol/kg every other day from 3 days before aneurysm induction, vs vehicle
# Protocol: (§1) Synthetic adropin^34-76 peptide was supplied from Bachem (Bubendorf, Switzerland) and diluted in 0.1% BSA in saline. 0.1% BSA in saline was used as vehicle control for all experiments. Adropin (450 nmol/kg) or an equivalent volume of vehicle was delivered via intraperitoneal injection 15 minutes post-SAH. For experiments ending at 24 hours post-SAH, an identical dose of adropin/vehicle was given again 12 hours later. For experiments ending 7 days post-SAH, adropin/vehicle was given again on days 1, 3 & 5 post-SAH. In the aneurysm rupture model, adropin was given at a dose of 450 nmol/kg starting 3 days before aneurysm induction (elastase injection). Adropin was given every other day until sacrifice
# Cerebral aneurysms were induced as previously described. Briefly, mice were anesthetized with ketamine (100 mg/kg) and xylazine (10 mg/kg) before the left common carotid artery and the right renal artery were ligated with 7-0 silk suture (Ethicon Inc., Somerville, New Jersey). Carotid and renal artery ligations are hereafter referred to as ligations. One week after ligations, mice were anesthetized and 10 μL of 1.0 U/mL porcine pancreatic elastase solution (Worthington Biochemical Corp, Lakewood, New Jersey) diluted in phosphate buffered saline (PBS, Invitrogen, Carlsbad, California) was stereotactically injected into the right basal cistern at 1.2 mm rostral of bregma, 0.7 mm lateral of midline, and 5.3 mm deep to the surface of the brain. A subcutaneous osmotic pump (Alzet, Cupertino, California) placed in the right flank immediately after elastase injection and continually infused angiotensin II (Bachem, Torrence, California) at a dose of 1000 ng/kg/min. Elastase injection and osmotic pump placement are hereafter referred to as aneurysm induction. Following recovery from aneurysm induction, mice were fed a diet of 8% NaCl with 0.12% beta-aminopropionitrile (BAPN; Harlan Laboratories, Indianapolis, Indiana).
# Three weeks post-aneurysm induction, mice were deeply anesthetized with ketamine/xylazine. A bilateral anterolateral thoracotomy with transverse sternotomy was made to expose the heart and great vessels. The right atrium was punctured with the tip of a 23 g needle as an outlet before the left ventricle was sequentially perfused with normal saline, 4% paraformaldehyde (PFA), and Coomassie Brilliant Blue dye in a 20% gelatin solution. Brains were carefully removed from the skull and inspected under a dissection microscope for the presence of aneurysms as evidenced by outpouching of cerebral arteries in or connected to the circle of Willis. Aneurysm rupture was identified by the presence of extravasated blood near an identified aneurysm. […]
# [2] = Quantitative serum assays for common markers of liver toxicity
# [3] = tested on: wild-type mice, SAH model; assay: Corner-turn preference test (sensorimotor deficits) after SAH
# Protocol: as §1, with “Adropin (450 nmol/kg) or an equivalent volume of vehicle was delivered via intraperitoneal injection 15 minutes post-SAH.” left out
# SAH was modeled using the anterior circulation single autologous blood injection method^25,33 with minor adjustments. Mice were anesthetized with ketamine (100 mg/kg) and xylazine (10 mg/kg) before removing hair from scalp and cleaning with serial betadine—saline washes. The tail was also prepped from the base extending 1 cm distally. Mice were then fixed into a stereotaxic frame and body temperature maintained at 37° C. The scalp was incised along the sagittal suture from bregma to the nasal bone. The skin was reflected and a burr hole was drilled 5.0 mm rostral of bregma and 0.5 mm right laterally to avoid puncturing dural venous sinuses. […]
substance,measurement,setting,value
adropin (CHSRSADVDSLSESSPNSSPGPCPEKAPPPQKPSHEGSYLLQP) [Synthetic adropin^34-76 peptide from Bachem],aneurysm formation,[1],did not significantly reduce aneurysm formation
same,aneurysm rupture,[1],did not significantly reduce aneurysm formation (FIG. 9C) or aneurysm rupture
same,deficit-free (symptom-free) survival,[1],extended deficit-free survival compared to vehicle
same,proportion of aneurysm ruptures that were symptom-producing,[1],less likely to be symptom-producing
same,serum concentration of alanine aminotransferase (ALT),[2]; I.P. injection of adropin,did not cause elevations
same,serum concentration of aspartate aminotransferase (AST),[2]; I.P. injection of adropin,did not cause elevations
same,serum concentration of fasting glucose,[2]; I.P. injection of adropin,did not cause elevations
same,serum concentration of total bilirubin,[2]; I.P. injection of adropin,did not cause elevations
same,common markers of liver toxicity,[2]; adropin vs vehicle,adropin had no effect compared to vehicle treatment
same,sensorimotor deficits,[3]; treatment initiated at 24 hours post-SAH,ability of adropin treatment to improve sensorimotor deficits was maintained
same,corner turn preference (sensorimotor deficit),"[3]; up to one week post-SAH, treatment started 15 minutes post-SAH",reducing this sensorimotor deficit and normalizing corner turn preference
